In paper PMC5218480 (PLoS ONE, 2017):

Test system: MV-4-11 cells
Assay: Gene expression microarray analysis (Affymetrix PrimeView) and GSEA
Format: cell-based, human
Set-up: RFU PODN (11730768_x_at) / Fold change /veh PODN (11730768_x_at) / RFU LINC00158 (11744669_a_at) / Fold change /veh LINC00158 (11744669_a_at) / RFU DUSP10 (11751237_a_at) / Fold change /veh DUSP10 (11751237_a_at) / RFU ID3 (11757404_x_at) / Fold change /veh ID3 (11757404_x_at) / RFU PLEKHG5 (11737974_s_at) / Fold change /veh PLEKHG5 (11737974_s_at) / RFU LRRC4B (11730491_at) / Fold change /veh LRRC4B (11730491_at) / RFU GIMAP4 (11747438_a_at) / Fold change /veh GIMAP4 (11747438_a_at) / RFU KRT8 (11758183_x_at) / Fold change /veh KRT8 (11758183_x_at) / RFU CNN1 (11734310_a_at) / Fold change /veh CNN1 (11734310_a_at) / RFU VPS37D (11726825_at) / Fold change /veh VPS37D (11726825_at) / RFU C10orf10 (11716522_x_at) / Fold change /veh C10orf10 (11716522_x_at) / RFU KIR2DL2 /// KIR2DL4 /// KIR2DL5A /// KIR2DL5B /// KIR2DS1 /// KIR2DS2 /// KIR2DS3 /// KIR2DS4 /// KIR3DL3 /// KIR3DL3 /// KIR3DS1 (11738374_at) / Fold change /veh KIR2DL2 /// KIR2DL4 /// KIR2DL5A /// KIR2DL5B /// KIR2DS1 /// KIR2DS2 /// KIR2DS3 /// KIR2DS4 /// KIR3DL3 /// KIR3DL3 /// KIR3DS1 (11738374_at) / RFU C1QL1 (11718748_at) / Fold change /veh C1QL1 (11718748_at) / RFU TMPRSS4 (11747572_a_at) / Fold change /veh TMPRSS4 (11747572_a_at) / RFU HAMP (11756126_x_at) / Fold change /veh HAMP (11756126_x_at) / RFU RNFT2 (11725882_a_at) / Fold change /veh RNFT2 (11725882_a_at) / RFU NR4A2 (11747474_a_at) / Fold change /veh NR4A2 (11747474_a_at) / RFU ABCC12 (11746883_a_at) / Fold change /veh ABCC12 (11746883_a_at) / RFU TMEM136 (11760407_x_at) / Fold change /veh TMEM136 (11760407_x_at) / RFU CLDN22 /// WWC2 (11732394_at) / Fold change /veh CLDN22 /// WWC2 (11732394_at) / RFU HLA-DPB1 (11760878_x_at) / Fold change /veh HLA-DPB1 (11760878_x_at) / RFU SPINT1 (11716480_a_at) / Fold change /veh SPINT1 (11716480_a_at) / RFU GAP43 (11754022_s_at) / Fold change /veh GAP43 (11754022_s_at) / RFU A4GNT (11735810_at) / Fold change /veh A4GNT (11735810_at) / RFU PRB3 (11715151_x_at) / Fold change /veh PRB3 (11715151_x_at) / RFU TUBB4B (11761932_at) / Fold change /veh TUBB4B (11761932_at) / RFU CAPN14 (11732068_a_at) / Fold change /veh CAPN14 (11732068_a_at) / RFU TMCC2 (11721928_a_at) / Fold change /veh TMCC2 (11721928_a_at) / RFU IRGQ (11745062_a_at) / Fold change /veh IRGQ (11745062_a_at) / RFU FAM174B (11720279_a_at) / Fold change /veh FAM174B (11720279_a_at) / RFU TMPRSS4 (11748680_a_at) / Fold change /veh TMPRSS4 (11748680_a_at) / RFU FAM212B (11763350_a_at) / Fold change /veh FAM212B (11763350_a_at) / RFU PLEKHG5 (11743358_a_at) / Fold change /veh PLEKHG5 (11743358_a_at) / RFU ZSCAN30 (11745921_a_at) / Fold change /veh ZSCAN30 (11745921_a_at) / RFU CMKLR1 (11741424_a_at) / Fold change /veh CMKLR1 (11741424_a_at) / RFU LOC101060620 /// MAPK8IP1 (11723275_at) / Fold change /veh LOC101060620 /// MAPK8IP1 (11723275_at) / RFU SPTSSB (11747773_x_at) / Fold change /veh SPTSSB (11747773_x_at) / RFU PRSS12 (11739890_at) / Fold change /veh PRSS12 (11739890_at) / RFU BIN1 (11741810_x_at) / Fold change /veh BIN1 (11741810_x_at) / RFU WNT11 (11732464_a_at) / Fold change /veh WNT11 (11732464_a_at) / RFU C10orf10 (11716521_a_at) / Fold change /veh C10orf10 (11716521_a_at) / RFU C5orf56 (11738089_at) / Fold change /veh C5orf56 (11738089_at) / RFU CYB561 (11721691_x_at) / Fold change /veh CYB561 (11721691_x_at) / RFU ANKRD19P (11752326_a_at) / Fold change /veh ANKRD19P (11752326_a_at) / RFU OR2T12 /// OR2T33 /// OR2T8 (11738714_s_at) / Fold change /veh OR2T12 /// OR2T33 /// OR2T8 (11738714_s_at) / RFU VCAN (11748164_a_at) / Fold change /veh VCAN (11748164_a_at) / RFU JSRP1 (11732532_at) / Fold change /veh JSRP1 (11732532_at) / RFU KRTAP10-11 (11738290_x_at) / Fold change /veh KRTAP10-11 (11738290_x_at) / RFU MYO3A (11730013_a_at) / Fold change /veh MYO3A (11730013_a_at) / RFU EBF3 (11725865_a_at) / Fold change /veh EBF3 (11725865_a_at) / RFU CAMK2N1 (11719241_x_at) / Fold change /veh CAMK2N1 (11719241_x_at) / RFU C5orf56 (11738088_a_at) / Fold change /veh C5orf56 (11738088_a_at) / RFU OLFML3 (11715873_a_at) / Fold change /veh OLFML3 (11715873_a_at) / RFU LOC100653217 /// NTM (11731650_a_at) / Fold change /veh LOC100653217 /// NTM (11731650_a_at) / RFU MAPK11 (11762145_a_at) / Fold change /veh MAPK11 (11762145_a_at) / RFU FIZ1 (11724087_x_at) / Fold change /veh FIZ1 (11724087_x_at) / RFU OASL (11726364_x_at) / Fold change /veh OASL (11726364_x_at) / RFU SOX15 (11748057_x_at) / Fold change /veh SOX15 (11748057_x_at) / RFU CD79A (11719716_a_at) / Fold change /veh CD79A (11719716_a_at) / RFU HIST1H1D (11736915_at) / Fold change /veh HIST1H1D (11736915_at) / RFU CASKIN2 (11723855_a_at) / Fold change /veh CASKIN2 (11723855_a_at) / RFU LOC730098 (11760151_x_at) / Fold change /veh LOC730098 (11760151_x_at) / RFU OR4N2 (11742367_at) / Fold change /veh OR4N2 (11742367_at) / RFU PRRT2 (11749266_a_at) / Fold change /veh PRRT2 (11749266_a_at) / RFU SNX32 (11753110_a_at) / Fold change /veh SNX32 (11753110_a_at) / RFU CDHR5 (11726645_a_at) / Fold change /veh CDHR5 (11726645_a_at) / RFU RCAN1 (11760418_a_at) / Fold change /veh RCAN1 (11760418_a_at) / RFU FAM167A (11723789_a_at) / Fold change /veh FAM167A (11723789_a_at) / RFU FAM26E (11764081_at) / Fold change /veh FAM26E (11764081_at) / RFU ISYNA1 (11749810_s_at) / Fold change /veh ISYNA1 (11749810_s_at) / RFU ACY1 (11761880_at) / Fold change /veh ACY1 (11761880_at) / RFU 11764098_at / Fold change /veh 11764098_at / RFU SAMD14 (11745864_x_at) / Fold change /veh SAMD14 (11745864_x_at) / RFU NPB (11741838_a_at) / Fold change /veh NPB (11741838_a_at) / RFU TMPRSS6 (11731388_a_at) / Fold change /veh TMPRSS6 (11731388_a_at) / RFU KRTAP10-2 (11738614_at) / Fold change /veh KRTAP10-2 (11738614_at) / RFU ARHGAP8 /// PRR5-ARHGAP8 (11727945_x_at) / Fold change /veh ARHGAP8 /// PRR5-ARHGAP8 (11727945_x_at) / RFU KRTAP5-7 /// NADSYN1 (11734609_at) / Fold change /veh KRTAP5-7 /// NADSYN1 (11734609_at) / RFU RASL12 (11751679_a_at) / Fold change /veh RASL12 (11751679_a_at) / RFU CDKN2B (11736163_a_at) / Fold change /veh CDKN2B (11736163_a_at) / RFU PRF1 (11729649_at) / Fold change /veh PRF1 (11729649_at) / RFU, ZNF638 /// ZNF638-IT1 / Fold change vs veh, ZNF638 /// ZNF638-IT1 / RFU, PANK3 / Fold change vs veh, PANK3 / RFU, SH3YL1 / Fold change vs veh, SH3YL1 / RFU, ZEB2 / Fold change vs veh, ZEB2 / RFU, NRIP1 / Fold change vs veh, NRIP1 / RFU, PTTG1IP / Fold change vs veh, PTTG1IP / RFU, CAPN2 / Fold change vs veh, CAPN2 / RFU, MED14 / Fold change vs veh, MED14 / RFU, SNORA58 / Fold change vs veh, SNORA58 / RFU, C1orf63 / Fold change vs veh, C1orf63 / RFU, LRRFIP1 / Fold change vs veh, LRRFIP1 / RFU, NDUFAF7 / Fold change vs veh, NDUFAF7 / RFU, SLC12A2 / Fold change vs veh, SLC12A2 / RFU, IBTK / Fold change vs veh, IBTK / RFU, ESF1 / Fold change vs veh, ESF1 / Fold change vs veh, TMEM50B / RFU, TAOK1 / Fold change vs veh, TAOK1 / RFU, ACBD3 / Fold change vs veh, ACBD3 / RFU, TMA16 / Fold change vs veh, TMA16 / RFU, RWDD3 / Fold change vs veh, RWDD3 / RFU, BCAT1 / Fold change vs veh, BCAT1 / RFU, EDEM3 / Fold change vs veh, EDEM3 / RFU, TMEM33 / Fold change vs veh, TMEM33 / RFU, WDR75 / Fold change vs veh, WDR75 / RFU, AHCTF1 / Fold change vs veh, AHCTF1 / RFU, TFRC / Fold change vs veh, TFRC / RFU, ZDHHC17 / Fold change vs veh, ZDHHC17 / RFU, NOM1 / Fold change vs veh, NOM1 / RFU, ARL8B / Fold change vs veh, ARL8B / RFU, ZBTB11 / Fold change vs veh, ZBTB11 / RFU, TAMM41 / Fold change vs veh, TAMM41 / RFU, KIAA1704 /// LOC100996395 / Fold change vs veh, KIAA1704 /// LOC100996395 / RFU, ING1 / Fold change vs veh, ING1 / RFU, TRMT61B / Fold change vs veh, TRMT61B / RFU, FUBP3 / Fold change vs veh, FUBP3 / RFU, TP53 / Fold change vs veh, TP53 / RFU, TNKS2 / Fold change vs veh, TNKS2 / RFU, ZFP14 / Fold change vs veh, ZFP14 / RFU, ACTR2 / Fold change vs veh, ACTR2 / RFU, PPP3R1 / Fold change vs veh, PPP3R1 / RFU, PIK3R1 / Fold change vs veh, PIK3R1 / RFU, HNRNPA1 / Fold change vs veh, HNRNPA1 / RFU, RNF170 / Fold change vs veh, RNF170 / RFU, ZNF28 / Fold change vs veh, ZNF28 / RFU, RNGTT / Fold change vs veh, RNGTT / RFU, OGT / Fold change vs veh, OGT / RFU, BRD1 / Fold change vs veh, BRD1 / RFU, MARS / Fold change vs veh, MARS / RFU, ZNF655 / Fold change vs veh, ZNF655 / RFU, FAHD1 / Fold change vs veh, FAHD1 / RFU, BDP1 / Fold change vs veh, BDP1 / RFU, LRRCC1 / Fold change vs veh, LRRCC1 / RFU, ARID1A / Fold change vs veh, ARID1A / RFU, ZNF146 / Fold change vs veh, ZNF146 / RFU, ZNF330 / Fold change vs veh, ZNF330 / RFU, GPN3 / Fold change vs veh, GPN3 / RFU, C9orf123 / Fold change vs veh, C9orf123 / RFU, N4BP2L2 / Fold change vs veh, N4BP2L2 / RFU, ARFIP1 / Fold change vs veh, ARFIP1 / RFU, FAM179B / Fold change vs veh, FAM179B / RFU, BCL10 / Fold change vs veh, BCL10 / RFU, UHRF1BP1L / Fold change vs veh, UHRF1BP1L / RFU, BET1 / Fold change vs veh, BET1 / RFU, CNOT2 / Fold change vs veh, CNOT2 / RFU, ZNF268 / Fold change vs veh, ZNF268 / Fold change vs veh, ZNF507 / RFU, DGCR2 / Fold change vs veh, DGCR2 / RFU, WDSUB1 / Fold change vs veh, WDSUB1 / Fold change vs veh, HSP90B1 /// MIR3652 / RFU, ADSS / Fold change vs veh, ADSS / RFU, GK / Fold change vs veh, GK / RFU, ZNF148 / Fold change vs veh, ZNF148 / RFU, TAF9 / Fold change vs veh, TAF9 / RFU, SLC1A5 / Fold change vs veh, SLC1A5 / RFU, SLMO2 / Fold change vs veh, SLMO2 / RFU, ABCC4 / Fold change vs veh, ABCC4 / RFU, LOC101060439 /// RAP1B / Fold change vs veh, LOC101060439 /// RAP1B / RFU, RFX7 / Fold change vs veh, RFX7 / RFU, GTPBP10 / Fold change vs veh, GTPBP10 / RFU, CNEP1R1 / Fold change vs veh, CNEP1R1 / RFU, BIVM-ERCC5 /// ERCC5 / Fold change vs veh, BIVM-ERCC5 /// ERCC5 / RFU, ILF3 / Fold change vs veh, ILF3 / RFU 11762660_at / Fold change /veh 11762660_at / RFU VCAN (11757783_s_at) / Fold change /veh VCAN (11757783_s_at) / RFU DDX43 (11728927_at) / Fold change /veh DDX43 (11728927_at) / RFU KRT8 (11758188_x_at) / Fold change /veh KRT8 (11758188_x_at) / RFU NKD1 (11759106_at) / Fold change /veh NKD1 (11759106_at) / RFU SRD5A1 (11742802_a_at) / Fold change /veh SRD5A1 (11742802_a_at) / RFU TPSAB1 /// TPSB2 (11721975_s_at) / Fold change /veh TPSAB1 /// TPSB2 (11721975_s_at) / RFU GSTM3 (11746129_a_at) / Fold change /veh GSTM3 (11746129_a_at) / RFU IL23R (11737362_x_at) / Fold change /veh IL23R (11737362_x_at) / RFU TMEM51 (11727254_a_at) / Fold change /veh TMEM51 (11727254_a_at) / RFU PIWIL2 (11732686_x_at) / Fold change /veh PIWIL2 (11732686_x_at) / RFU ORM1 (11744905_x_at) / Fold change /veh ORM1 (11744905_x_at) / RFU CCDC152 (11743942_at) / Fold change /veh CCDC152 (11743942_at) / RFU ECM1 (11717891_a_at) / Fold change /veh ECM1 (11717891_a_at) / RFU IL23R (11748794_a_at) / Fold change /veh IL23R (11748794_a_at) / RFU TNFAIP8L3 (11732012_x_at) / Fold change /veh TNFAIP8L3 (11732012_x_at) / RFU MBOAT4 (11741988_at) / Fold change /veh MBOAT4 (11741988_at) / RFU 11764193_at / Fold change /veh 11764193_at / RFU TMEM53 (11763286_at) / Fold change /veh TMEM53 (11763286_at) / RFU MAGEB2 (11727129_at) / Fold change /veh MAGEB2 (11727129_at) / RFU TMEM200A (11744735_a_at) / Fold change /veh TMEM200A (11744735_a_at) / RFU CCDC152 (11751479_a_at) / Fold change /veh CCDC152 (11751479_a_at) / RFU FAM211A (11726209_a_at) / Fold change /veh FAM211A (11726209_a_at) / RFU RGS16 (11746705_a_at) / Fold change /veh RGS16 (11746705_a_at) / RFU VCAN (11755009_s_at) / Fold change /veh VCAN (11755009_s_at) / RFU RHOB (11743442_s_at) / Fold change /veh RHOB (11743442_s_at) / RFU RGS16 (11720943_a_at) / Fold change /veh RGS16 (11720943_a_at) / RFU RGS16 (11720944_at) / Fold change /veh RGS16 (11720944_at) / RFU, VPS4B / Fold change vs veh, VPS4B / RFU, CREB1 / Fold change vs veh, CREB1 / RFU, DNAJC13 / Fold change vs veh, DNAJC13 / RFU, GNAQ / Fold change vs veh, GNAQ / RFU, CDK5R1 / Fold change vs veh, CDK5R1 / RFU, ZRANB3 / Fold change vs veh, ZRANB3 / RFU, CUL4A / Fold change vs veh, CUL4A / RFU, CCNY / Fold change vs veh, CCNY / RFU, UFL1 / Fold change vs veh, UFL1 / RFU, COG3 / Fold change vs veh, COG3 / RFU, DIAPH2 / Fold change vs veh, DIAPH2 / RFU, SKA2 / Fold change vs veh, SKA2 / RFU, AFF3 / Fold change vs veh, AFF3 / RFU, LMF1 / Fold change vs veh, LMF1 / RFU, IPO11 / Fold change vs veh, IPO11 / RFU, DFFB / Fold change vs veh, DFFB / RFU, FOXP1 / Fold change vs veh, FOXP1 / RFU, CARD8 / Fold change vs veh, CARD8 / RFU, STRN3 / Fold change vs veh, STRN3 / RFU, ADK / Fold change vs veh, ADK / RFU, RASSF2 / Fold change vs veh, RASSF2 / RFU, WIPF1 / Fold change vs veh, WIPF1 / RFU, LARP1B / Fold change vs veh, LARP1B / RFU, RASA1 / Fold change vs veh, RASA1 / RFU, RB1 / Fold change vs veh, RB1 / RFU, PPFIA1 / Fold change vs veh, PPFIA1 / RFU, MAT2A / Fold change vs veh, MAT2A / RFU, CCT5 / Fold change vs veh, CCT5 / RFU, WDR92 / Fold change vs veh, WDR92 / RFU, CUX1 / Fold change vs veh, CUX1 / RFU, TTC7A / Fold change vs veh, TTC7A / RFU, TMEM135 / Fold change vs veh, TMEM135 / RFU, DEPTOR / Fold change vs veh, DEPTOR / RFU, CPM / Fold change vs veh, CPM / RFU, DNAJB6 / Fold change vs veh, DNAJB6 / RFU, CACNA2D3 / Fold change vs veh, CACNA2D3 / RFU, DTX4 / Fold change vs veh, DTX4 / RFU, TFCP2 / Fold change vs veh, TFCP2 / RFU, GMCL1 /// GMCL1P1 / Fold change vs veh, GMCL1 /// GMCL1P1 / RFU, AEBP2 / Fold change vs veh, AEBP2 / RFU, SNHG1 /// SNORD22 /// SNORD25 /// SNORD26 /// SNORD27 /// SNORD28 /// SNORD29 /// SNORD31 / Fold change vs veh, SNHG1 /// SNORD22 /// SNORD25 /// SNORD26 /// SNORD27 /// SNORD28 /// SNORD29 /// SNORD31 / Fold change (Aza/veh), C12orf56 (ProbeSet 11735607_a_at) / Fold change (ACY-1035/veh), C12orf56 (ProbeSet 11735607_a_at) / Fold change (Aza/veh), FGFR1OP (ProbeSet 11751329_s_at) / Fold change (ACY-1035/veh), FGFR1OP (ProbeSet 11751329_s_at) / Fold change (Aza/veh), VPS36 (ProbeSet 11739960_a_at) / Fold change (ACY-1035/veh), VPS36 (ProbeSet 11739960_a_at) / RFU SYPL1 (11715823_x_at) / Fold change /veh SYPL1 (11715823_x_at) / RFU IGFBP7 (11715501_s_at) / Fold change /veh IGFBP7 (11715501_s_at) / RFU REEP3 (11722064_at) / Fold change /veh REEP3 (11722064_at) / RFU IGLL1 (11728026_x_at) / Fold change /veh IGLL1 (11728026_x_at): dose or concentration left out as unconfirmed
Settings: MV-4-11 cells, 48 hours

SMILES: Nc1ccc(-c2cccs2)cc1NC(=O)c1ccc2c(c1)cc(C1CC1)n2CCN1CCOCC1 [ACY-1035]
- RFU ECM1 (11717891_a_at): 18.49 RFU
